Laboratory results from ChEMBL document CHEMBL6134857, “Novel Spiro-Barbiturates Can Reverse the Action of General Anesthetics on the GABAAR” (J Med Chem, 2025).
pEC50, pIC50: −log10 of the molar value. Activity calls are given as the source filed them. The calls are words filed in the database; no cut-off is given here.

Legend:
Format in all cases: cell membranes
[1] = target: T1, GABA-A receptor; alpha-1/beta-3/gamma-2 (Homo sapiens, UniProt P14867+P18507+P28472); assay: Positive allosteric modulation on [3H]muscimol binding to full length human N-terminal flag-tagged alpha1-beta3-C-terminal 1D4-tagged gamma2 GABAA receptor extracted from Tetracycline-resistant HEK293 cell membrane assessed as [3H]muscimol binding incubated for 30 mins
T1 sequence (P14867 whole entry): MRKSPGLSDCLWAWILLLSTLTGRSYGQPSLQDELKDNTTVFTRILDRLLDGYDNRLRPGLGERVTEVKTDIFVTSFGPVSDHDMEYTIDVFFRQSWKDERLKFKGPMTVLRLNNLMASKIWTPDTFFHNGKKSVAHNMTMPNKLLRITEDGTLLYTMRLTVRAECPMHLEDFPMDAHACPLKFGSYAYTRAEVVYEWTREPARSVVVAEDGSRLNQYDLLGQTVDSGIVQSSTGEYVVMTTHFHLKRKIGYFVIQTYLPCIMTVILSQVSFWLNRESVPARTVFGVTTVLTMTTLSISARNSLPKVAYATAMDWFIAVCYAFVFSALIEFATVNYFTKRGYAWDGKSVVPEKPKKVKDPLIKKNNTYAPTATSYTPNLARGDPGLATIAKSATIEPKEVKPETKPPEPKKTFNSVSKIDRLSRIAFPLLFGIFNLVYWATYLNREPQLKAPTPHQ
T1 sequence (P18507 whole entry): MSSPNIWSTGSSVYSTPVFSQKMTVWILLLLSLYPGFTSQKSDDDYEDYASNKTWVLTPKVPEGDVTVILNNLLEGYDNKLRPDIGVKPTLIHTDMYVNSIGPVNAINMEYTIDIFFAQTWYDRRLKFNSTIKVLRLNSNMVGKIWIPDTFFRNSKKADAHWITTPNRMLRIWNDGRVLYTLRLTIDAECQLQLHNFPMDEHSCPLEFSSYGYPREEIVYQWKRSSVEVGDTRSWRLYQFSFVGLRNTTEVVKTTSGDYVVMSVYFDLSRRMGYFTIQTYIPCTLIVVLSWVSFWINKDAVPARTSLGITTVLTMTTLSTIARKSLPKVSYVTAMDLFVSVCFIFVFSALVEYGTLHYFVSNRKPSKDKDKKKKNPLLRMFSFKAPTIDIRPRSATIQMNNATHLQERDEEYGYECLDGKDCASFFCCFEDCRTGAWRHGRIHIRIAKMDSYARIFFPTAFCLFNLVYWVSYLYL
T1 sequence (P28472 whole entry): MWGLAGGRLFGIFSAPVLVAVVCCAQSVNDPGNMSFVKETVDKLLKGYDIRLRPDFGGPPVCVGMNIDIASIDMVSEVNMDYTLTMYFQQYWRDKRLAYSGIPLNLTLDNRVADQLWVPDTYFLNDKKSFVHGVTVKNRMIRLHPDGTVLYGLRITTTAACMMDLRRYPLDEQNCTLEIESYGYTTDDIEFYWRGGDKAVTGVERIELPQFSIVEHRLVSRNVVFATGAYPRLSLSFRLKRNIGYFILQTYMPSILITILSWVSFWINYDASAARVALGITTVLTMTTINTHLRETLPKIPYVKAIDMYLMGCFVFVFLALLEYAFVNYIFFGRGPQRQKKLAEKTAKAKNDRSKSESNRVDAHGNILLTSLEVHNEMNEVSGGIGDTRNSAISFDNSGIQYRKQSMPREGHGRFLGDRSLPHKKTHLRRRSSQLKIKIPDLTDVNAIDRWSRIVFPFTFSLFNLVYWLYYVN

[2] = target: T1, GABA-A receptor; alpha-1/beta-3/gamma-2; assay: Inhibition of R-mTFD-MPAB-induced [3H]muscimol binding to full length human N-terminal flag-tagged alpha1-beta3-C-terminal 1D4-tagged gamma2 GABAA receptor extracted from Tetracycline-resistant HEK293 cell membrane incubated for 30 mins
[3] = target: T1, GABA-A receptor; alpha-1/beta-3/gamma-2; assay: Mixed-type inhibition of R-mTFD-MPAB-induced [3H]muscimol binding to full length human N-terminal flag-tagged alpha1-beta3-C-terminal 1D4-tagged gamma2 GABAA receptor extracted from Tetracycline-resistant HEK293 cell membrane incubated for 30 mins
[4] = target: T1, GABA-A receptor; alpha-1/beta-3/gamma-2; assay: Mixed effect on [3H]muscimol binding to full length human N-terminal flag-tagged alpha1-beta3-C-terminal 1D4-tagged gamma2 GABAA receptor extracted from Tetracycline-resistant HEK293 cell membrane assessed as [3H]muscimol binding incubated for 30 mins
[5] = target: T2, GABA-A receptor; alpha-1/beta-3/gamma-2 (Homo sapiens) (UniProt P14867+P18507+P28472); assay: Effect on [3H]muscimol binding to full length human N-terminal flag-tagged alpha1-beta3-C-terminal 1D4-tagged gamma2 GABAA receptor extracted from Tetracycline-resistant HEK293 cell membrane assessed as fold change in [3H]muscimol binding at 300 uM incubated for 30 mins; conditions: filed as modulator
[6] = target: T2, GABA-A receptor; alpha-1/beta-3/gamma-2 (Homo sapiens); assay: Inhibition of R-mTFD-MPAB-induced [3H]muscimol binding to full length human N-terminal flag-tagged alpha1-beta3-C-terminal 1D4-tagged gamma2 GABAA receptor extracted from Tetracycline-resistant HEK293 cell membrane assessed as fold change at 300 uM incubated for 30 mins; conditions: filed as modulator
[7] = target: T2, GABA-A receptor; alpha-1/beta-3/gamma-2 (Homo sapiens); assay: (§1) Modulation of [3H]flunitrazepam binding to full length human N-terminal flag-tagged alpha1-beta3-C-terminal 1D4-tagged gamma2 GABAA receptor extracted from Tetracycline-resistant HEK293 cell membrane assessed as fold change in [3H]flunitrazepam binding at 300 uM incubated for 30 mins; conditions: filed as modulator
[8] = target: T2, GABA-A receptor; alpha-1/beta-3/gamma-2 (Homo sapiens); assay: as §1, with “Inhibition” for “Modulation”, “reduction” for “fold change”, “mins relative to control” for “mins”
[9] = target: T2, GABA-A receptor; alpha-1/beta-3/gamma-2 (Homo sapiens); assay: Effect on [3H]muscimol binding to full length human N-terminal flag-tagged alpha1-beta3-C-terminal 1D4-tagged gamma2 GABAA receptor extracted from Tetracycline-resistant HEK293 cell membrane assessed as [3H]muscimol binding at 300 uM incubated for 30 mins relative to control
[10] = target: T2, GABA-A receptor; alpha-1/beta-3/gamma-2 (Homo sapiens); assay: Inhibition of R-mTFD-MPAB-induced [3H]muscimol binding to full length human N-terminal flag-tagged alpha1-beta3-C-terminal 1D4-tagged gamma2 GABAA receptor extracted from Tetracycline-resistant HEK293 cell membrane at 300 uM incubated for 30 mins relative to control
[11] = target: T2, GABA-A receptor; alpha-1/beta-3/gamma-2 (Homo sapiens); assay: Positive allosteric modulation on R-mTFD-MPAB-induced [3H]muscimol binding to full length human N-terminal flag-tagged alpha1-beta3-C-terminal 1D4-tagged gamma2 GABAA receptor extracted from Tetracycline-resistant HEK293 cell membrane at 300 uM incubated for 30 mins relative to control

SMILES | fold change (FC) [5] | fold change (FC) [6] | fold change (FC) [7] | inhibition [8] | Activity [9] | inhibition [10] | other results
CC(C)c1ccc2c(c1)C1(CC2)C(=O)NC(=O)N(C)C1=O (stereo in doubt; 5h-1) [listing 1 of 2 here] | – | – | – | – | – | – | pEC50 [1]: 4.49
O=C1NC(=O)C2(CC(O)c3ccccc32)C(=O)N1 (stereo in doubt; 1t-2) [listing 1 of 2 here] | – | – | – | – | – | – | pIC50 [2]: 3.95
Cc1ccc2c(c1)C1(CC2)C(=O)NC(=O)N(C)C1=O (stereo in doubt; 4h-2) [listing 1 of 2 here] | – | – | – | – | – | – | pIC50 [3]: 4.42; pEC50 [4]: 4.49
O=C1NC(=O)C2(CCCCc3ccccc32)C(=O)N1 | 0.22 | 0.98 | 0.43 | 12% | – | – | –
Cc1ccc2c(c1)C1(CC2)C(=O)NC(=O)N(C)C1=O (stereo in doubt; 4h-1) | 0.15 | 0.88 | 0.76 | 12% | – | – | –
O=C1NC(=O)C2(CCc3ccccc32)C(=O)N1 | -0.02 | 0.53 | – | 12% | – | – | pIC50 [2]: 4.74
CC(C)c1ccc2c(c1)C1(CC2)C(=O)NC(=O)N(C)C1=O (stereo in doubt; 5h-2) [listing 1 of 2 here] | – | – | – | – | – | – | pEC50 [1]: 4.42
CN1C(=O)NC(=O)C2(CCc3ccc(Br)cc32)C1=O (stereo in doubt; 6h-1) | 0.4 | 0.99 | 0.65 | 12% | – | – | –
CN=C1NC(=O)C2(CCc3ccccc32)C(=O)N1 (centres undefined) | -0.09 | 0.35 | – | – | – | – | pIC50 [2]: 4.00
CC(C)c1ccc2c(c1)C1(CC2)C(=O)NC(=O)N(C)C1=O (stereo in doubt; 5h-2) [listing 2 of 2 here] | 0.14 | 0.97 | 0.59 | 12% | – | – | –
CC(C)c1ccc2c(c1)C1(CC2)C(=O)NC(=O)NC1=O | 0.26 | 0.9 | – | – | < 10% | > 40% | pEC50 [1]: 4.66; Activity [11]: 20%
Cc1ccc2c(c1)C1(CC2)C(=O)NC(=O)N(C)C1=O (stereo in doubt; 4h-2) [listing 2 of 2 here] | 0.37 | 0.54 | 0.72 | 12% | – | – | –
O=C1NC(=O)C2(CCCc3ccccc32)C(=O)N1 | 0.08 | 0.97 | 0.45 | 12% | – | – | –
Cc1ccc2c(c1)C1(CC2)C(=O)NC(=S)NC1=O | 0.02 | 0.94 | – | – | < 10% | > 40% | –
COc1ccc2c(c1)C1(CC2)C(=O)NC(=O)N(C)C1=O (stereo in doubt; 7h-2) | 0.37 | 0.73 | 0.88 | 12% | – | – | –
CN1C(=O)NC(=O)[C@@]2(CCc3ccccc32)C1=O | 0.08 | 0.78 | 0.56 | 12% | – | – | –
COc1ccc2c(c1)C1(CC2)C(=O)NC(=O)N(C)C1=O (stereo in doubt; 7h-1) | 0.36 | 1.06 | 0.55 | 45% | – | – | –
CN1C(=O)NC(=O)[C@]2(CCc3ccccc32)C1=O | 0.16 | 0.67 | 0.67 | 12% | – | – | –
N=C1NC(=O)C2(CCc3ccc(Br)cc32)C(=O)N1 (centres undefined) | 0.03 | 0.53 | – | – | < 10% | > 40% | –
N=C1NC(=O)C2(CCc3ccc(Cl)cc32)C(=O)N1 (centres undefined) | 0.02 | 0.53 | – | – | < 10% | > 40% | –
COc1ccc2c(c1)C1(CC2)C(=O)NC(=O)NC1=O | 0 | 0.69 | – | – | < 10% | > 40% | –
O=C1NC(=S)NC(=O)C12CCc1ccc(Br)cc12 | 0.43 | 0.74 | – | – | < 10% | > 40% | –
COc1ccc2c(c1)C1(CC2)C(=O)NC(=S)NC1=O | 0.2 | 1.04 | – | – | < 10% | > 40% | –
CN1C(=O)NC(=O)C2(CCc3ccc(Br)cc32)C1=O (stereo in doubt; 6h-2) | 0.35 | 1.09 | 0.61 | 12% | – | – | –
NC1CC2(C(=O)NC(=O)NC2=O)c2ccccc21 (racemic) | 0.1 | 0.81 | – | – | inactive | 19% | –
O=C1NC(=O)C2(CC(O)c3ccccc32)C(=O)N1 (stereo in doubt; 1t-2) [listing 2 of 2 here] | 0.02 | 0.55 | – | – | inactive | 45% | –
CC(C)c1ccc2c(c1)C1(CC2)C(=O)NC(=O)N(C)C1=O (stereo in doubt; 5h-1) [listing 2 of 2 here] | 0.8 | 0.73 | 0.84 | 12% | – | – | Activity ([11]; filed as positive allosteric modulator): 80%
